Reference: patent US6462038B1, “Androgen receptor modulator compounds and methods” (Ligand Pharmaceuticals, Inc., priority 1999, dated 2002)
Where two headings read alike, the source gives them in different places.

Key:
hAR [1] = biological target: T1, hAR (Homo sapiens, UniProt P10275); experiment: co-transfection assay, AR antagonist (in presence of DHT), CV-1 cells; format: cell-based; conditions: for AR Antagonist CV-1 Cells Efficacy (%): maximal inhibition
T1 construct: expressed in transfected cells; host or cells: CV-1 cells (African green monkey kidney fibroblasts)
T1 sequence (P10275 1-920): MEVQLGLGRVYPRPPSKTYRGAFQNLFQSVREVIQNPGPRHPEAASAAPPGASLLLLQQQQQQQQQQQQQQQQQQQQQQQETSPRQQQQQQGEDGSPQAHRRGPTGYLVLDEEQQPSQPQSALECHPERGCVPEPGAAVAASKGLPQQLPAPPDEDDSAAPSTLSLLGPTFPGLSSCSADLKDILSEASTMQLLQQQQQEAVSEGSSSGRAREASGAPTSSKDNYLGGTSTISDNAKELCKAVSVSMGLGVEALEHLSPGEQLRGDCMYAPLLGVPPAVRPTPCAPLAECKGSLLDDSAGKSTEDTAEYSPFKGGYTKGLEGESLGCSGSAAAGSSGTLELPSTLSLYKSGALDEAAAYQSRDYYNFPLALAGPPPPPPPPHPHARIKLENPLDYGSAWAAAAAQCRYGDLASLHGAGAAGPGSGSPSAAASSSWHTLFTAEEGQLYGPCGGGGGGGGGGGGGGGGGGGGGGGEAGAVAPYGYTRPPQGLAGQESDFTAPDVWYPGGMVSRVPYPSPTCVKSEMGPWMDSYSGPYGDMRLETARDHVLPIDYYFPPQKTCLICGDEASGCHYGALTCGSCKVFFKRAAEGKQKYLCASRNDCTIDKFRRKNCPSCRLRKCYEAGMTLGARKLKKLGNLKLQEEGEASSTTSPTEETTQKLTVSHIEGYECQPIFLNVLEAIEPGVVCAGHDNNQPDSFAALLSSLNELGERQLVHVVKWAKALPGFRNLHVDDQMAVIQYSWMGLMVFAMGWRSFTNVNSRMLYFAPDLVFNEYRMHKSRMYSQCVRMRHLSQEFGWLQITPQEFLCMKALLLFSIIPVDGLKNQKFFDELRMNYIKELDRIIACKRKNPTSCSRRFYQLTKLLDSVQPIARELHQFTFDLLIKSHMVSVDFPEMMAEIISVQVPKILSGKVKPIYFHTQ

hAR [2] = biological target: T1, hAR; experiment: co-transfection assay, AR agonist, CV-1 cells; format: cell-based; conditions: for AR Agonist CV-1 Cells Efficacy (%): relative to maximum LUC production by reference agonist
[3] = AR Agonist CV-1 Cells Potency (nM), hAR in CV-1 cells

Row | SMILES | IC50 (hAR [1]) | AR Antagonist CV-1 Cells Efficacy (%) (hAR [1]; hAR in CV-1 cells, DHT at EC50) | EC50 (hAR [2]) | AR Agonist CV-1 Cells Efficacy (%) (hAR [2]; hAR in CV-1 cells) | EC50 (hAR [2]; AR Agonist CV-1 Cells Potency (nM)) | EC50 (hAR [2]; [3]) | IC50 (hAR [1]; read-out: AR Antagonist CV-1 Cells Potency, hAR in CV-1 cells, DHT at EC50)
1 | CC[C@@H]1Oc2cc3[nH]c(=O)cc(C(F)(F)F)c3cc2N(CC(F)(F)F)[C@H]1C (racemic) [Compound 128, (±)-trans-3-Ethyl-1,2,3,6-tetrahydro-2-methyl-1-(2,2,2-trifluoroethyl)-9-(trifluoromethyl)-7H-[1,4]oxazino[3,2-g]quinolin-7-one] | 1340 nM | 42% | > 10000 nM | na (na = not active (i.e. efficacy of < 20 and potency of > 10,000 nM for the cotransfection assay, and Ki > 1000 nM for the binding assay)) | – | – | –
2 | CC[C@H]1Oc2cc3[nH]c(=O)cc(C(F)(F)F)c3cc2N(CC(F)(F)F)[C@H]1C (racemic) [Compound 129, (±)-cis-3-Ethyl-1,2,3,6-tetrahydro-2-methyl-1-(2,2,2-trifluoroethyl)-9-(trifluoromethyl)-7H-[1,4]oxazino[3,2-g]quinolin-7-one] | 13 nM | 76% | 1340 nM | 42% | – | – | –
3 | O=c1cc(C(F)(F)F)c2cc3c(cc2[nH]1)OCC(CO)N3CC(F)(F)F (racemic) [Compound 130, (±)-1,2,3,6-Tetrahydro-2-(hydroxymethyl)-1-(2,2,2-trifluoroethyl)-9-(trifluoromethyl)-7H-[1,4]oxazino[3,2-g]quinolin-7-one] | – | na (na = not active (i.e. efficacy of < 20 and potency of > 10,000 nM for the cotransfection assay, and Ki > 1000 nM for the binding assay)) | – | 48% | – | – | –
4 | CC(=O)OCC1COc2cc3[nH]c(=O)cc(C(F)(F)F)c3cc2N1CC(F)(F)F (racemic) [Compound 131, (±)-1,2,3,6-Tetrahydro-2-(acetoxymethyl)-1-(2,2,2-trifluoroethyl)-9-(trifluoromethyl)-7H-[1,4]oxazino[3,2-g]quinolin-7-one] | > 10000 nM | na (na = not active (i.e. efficacy of < 20 and potency of > 10,000 nM for the cotransfection assay, and Ki > 1000 nM for the binding assay)) | 31 nM | 46% | – | – | –
5 | COCC1COc2cc3[nH]c(=O)cc(C(F)(F)F)c3cc2N1CC(F)(F)F (racemic) [Compound 132, (±)-1,2,3,6-Tetrahydro-2-(methoxymethyl)-1-(2,2,2-trifluoroethyl)-9-(trifluoromethyl)-7H-[1,4]oxazino[3,2-g]quinolin-7-one] | > 10000 nM | na (na = not active (i.e. efficacy of < 20 and potency of > 10,000 nM for the cotransfection assay, and Ki > 1000 nM for the binding assay)) | – | 72% | 1.7 nM | – | –
6 | CCC1COc2cc3[nH]c(=O)cc(C(F)(F)F)c3cc2N1CC(F)(F)F (racemic) [Compound 145, (±)-2-Ethyl-1,2,3,6-tetrahydro-1-(2,2,2-trifluoroethyl)-9-(trifluoromethyl)-7H-[1,4]oxazino[3,2-g]quinolin-7-one] | – | 30% | – | 69% | – | – | –
7 | CC1COc2cc3[nH]c(=O)cc(C(F)(F)F)c3cc2N1CC(F)(F)F (single isomer, unassigned; (+)) [Compound 124, (+)-1,2,3,6-Tetrahydro-2-methyl-1-(2,2,2-trifluoroethyl)-9-(trifluoromethyl)-7H-[1,4]oxazino[3,2-g]quinolin-7-one] | > 10000 nM | na (na = not active (i.e. efficacy of < 20 and potency of > 10,000 nM for the cotransfection assay, and Ki > 1000 nM for the binding assay)) | – | 54% | – | 3.6 nM | –
8 | CC1COc2cc3[nH]c(=O)cc(C(F)(F)F)c3cc2N1CC(F)(F)F (single isomer, unassigned; (-)) [Compound 125, (−)-1,2,3,6-Tetrahydro-2-methyl-1-(2,2,2-trifluoroethyl)-9-(trifluoromethyl)-7H-[1,4]oxazino[3,2-g]quinolin-7-one] | – | na (na = not active (i.e. efficacy of < 20 and potency of > 10,000 nM for the cotransfection assay, and Ki > 1000 nM for the binding assay)) | – | 74% | – | 0.7 nM | > 10000 nM
9 | O=c1[nH]c2cc3c(cc2c(C(F)(F)F)c1F)N(CC(F)(F)F)CCO3 [Compound 106, 8-Fluoro-1,2,3,6-tetrahydro-1-(2,2,2-trifluoroethyl)-9-(trifluoromethyl)-7H-[1,4]oxazino[3,2-g]quinolin-7-one] | > 10000 nM | na (na = not active (i.e. efficacy of < 20 and potency of > 10,000 nM for the cotransfection assay, and Ki > 1000 nM for the binding assay)) | 4 nM | 80% | – | – | –
10 | O=c1[nH]c2cc3c(cc2c(C(F)(F)F)c1Cl)N(CC(F)(F)F)CCO3 [Compound 107, 8-Chloro-1,2,3,6-tetrahydro-1-(2,2,2-trifluoroethyl)-9-(trifluoromethyl)-7H-[1,4]oxazino[3,2-g]quinolin-7-one] | > 10000 nM | na (na = not active (i.e. efficacy of < 20 and potency of > 10,000 nM for the cotransfection assay, and Ki > 1000 nM for the binding assay)) | 26 nM | 92% | – | – | –
11 | O=c1cc(C(F)F)c2cc3c(cc2[nH]1)OCCN3CC(F)(F)F [Compound 108, 9-(Difluoromethyl)-1,2,3,6-tetrahydro-1-(2,2,2-trifluoroethyl)-7H-[1,4]oxazino[3,2-g]quinolin-7-one] | > 10000 nM | na (na = not active (i.e. efficacy of < 20 and potency of > 10,000 nM for the cotransfection assay, and Ki > 1000 nM for the binding assay)) | 14 nM | 80% | – | – | –
12 | Cn1c(=O)cc(C(F)(F)F)c2cc3c(cc21)OCCN3CC(F)(F)F [Compound 109, 1,2,3,6-Tetrahydro-6-methyl-1-(2,2,2-trifluoroethyl)-9-(trifluoromethyl)-7H-[1,4]oxazino[3,2-g]quinolin-7-one] | 24 nM | 57% | > 10000 nM | na (na = not active (i.e. efficacy of < 20 and potency of > 10,000 nM for the cotransfection assay, and Ki > 1000 nM for the binding assay)) | – | – | –
13 | FC(F)(F)CN1CCOc2cc3[nH]c(=S)cc(C(F)(F)F)c3cc21 [Compound 110, 1,2,3,6-Tetrahydro-1-(2,2,2-trifluoroethyl)-9-(trifluoromethyl)-7H-[1,4]oxazino[3,2-g]quinolin-7-thione] | > 10000 nM | na (na = not active (i.e. efficacy of < 20 and potency of > 10,000 nM for the cotransfection assay, and Ki > 1000 nM for the binding assay)) | 44 nM | 90% | – | – | –
14 | CC(C)CN1CCOc2cc3c(cc21)c(C(F)(F)F)cc(=O)n3C [Compound 113, 1,2,3,6-Tetrahydro-1-isobutyl-6-methyl-9-(trifluoromethyl)-7H-[1,4]oxazino[3,2-g]quinolin-7-one] | 61 nM | 78% | > 10000 nM | na (na = not active (i.e. efficacy of < 20 and potency of > 10,000 nM for the cotransfection assay, and Ki > 1000 nM for the binding assay)) | – | – | –
15 | O=c1cc(C(F)(F)F)c2cc3c(cc2[nH]1)OCCN3 [Compound 120, 1,2,3,6-Tetrahydro-9-(trifluoromethyl)-7H-[1,4]oxazino[3,2-g]quinolin-7-one] | – | 69% | – | na (na = not active (i.e. efficacy of < 20 and potency of > 10,000 nM for the cotransfection assay, and Ki > 1000 nM for the binding assay)) | – | – | –
16 | O=c1cc(C(F)(F)F)c2cc3c(cc2[nH]1)OCCN3Cc1ccccn1 [Compound 122, 1,2,3,6-Tetrahydro-1-(2-pyridylmethyl)-9-(trifluoromethyl)-7H-[1,4]oxazino[3,2-g]quinolin-7-one] | 632 nM | 75% | > 10000 nM | na (na = not active (i.e. efficacy of < 20 and potency of > 10,000 nM for the cotransfection assay, and Ki > 1000 nM for the binding assay)) | – | – | –
